Results on 2 molecules are retold here after patent US20150328232A1, “PROSTACYLIN COMPOSITIONS AND METHODS FOR USING THE SAME” (INSMED INCORPRATION, priority 2012, published 2015).

The conditions of data set [1]: cited from earlier work.
Data set [2] can be described thus: Dialysis assay against PBS (treprostinil release). The following applies: 5 mL dialyzed against 1 L 1×PBS, 50 kDa MW cutoff membrane. It counts as physicochemical. The method, then: The results of this study can be used as an indication of which compositions might provide a sustained release profile in vivo.
5 mL of each sample was dialyzed against 1 L of 1×PBS. […] sample was collected and tested by HPLC at different time points (FIG. 7). 250 μL sample was collected at 24 h. Each time a sample was collected, an equal volume of 1×PBS was added to the dialysis bag. Absorbance data was normalized to the calculated dilution factor.

Data set [3] concerns the target T1, EP2 prostanoid receptor (Homo sapiens, UniProt P43116).
T1 construct: host or cells: CHO-K1
In words: GloSensor cAMP assay in CHO-K1 cells co-transfected with EP2 receptor. In kind it is cell-based. The text has this: A cell based Chinese hamster ovary-K1 (CHO-K1) assay based on the GloSensor™ cAMP assay (Promega) was used to characterize the effect of treprostinil alkyl ester compounds on cAMP levels.
cAMP is a second messenger involved in signal transduction of G-protein coupled receptors (GPCRs) acting through Gα-s and Gα-i proteins. Because the treprostinil receptor is a GPCR, the assay provides an indication of whether the respective prostacyclin composition binds its receptor and activates the GPCR cell signaling cascade.
The GloSensor™ assay harnesses a genetically modified form of firefly luciferase into which a cAMP-binding protein moiety has been inserted. Upon binding of cAMP, a conformational change is induced leading to increased light output.
The EP2 prostanoid receptor was co-transfected with the GloSensor™ plasmid (Promega) into CHO-K1 cells as follows. CHO-K1 cells were harvested when the monoloayer was at 50-90% confluence. First, cells were washed with 5 mL PBS. […] Cell number was determined using a hemacytometer. […]
Following incubation, cells were treated and analyzed. […] Cell number was determined using a hemacytometer. […] Following an overnight incubation at 37° C. and 5% CO2 in a water-jacketed incubator, the cells were ready for use in cAMP response assays. […]
(Cyclic AMP is a second messenger, typically raised through Gs and lowered through Gi signalling.)

Each structure is given as a SMILES string.

T1 sequence (P43116 whole entry): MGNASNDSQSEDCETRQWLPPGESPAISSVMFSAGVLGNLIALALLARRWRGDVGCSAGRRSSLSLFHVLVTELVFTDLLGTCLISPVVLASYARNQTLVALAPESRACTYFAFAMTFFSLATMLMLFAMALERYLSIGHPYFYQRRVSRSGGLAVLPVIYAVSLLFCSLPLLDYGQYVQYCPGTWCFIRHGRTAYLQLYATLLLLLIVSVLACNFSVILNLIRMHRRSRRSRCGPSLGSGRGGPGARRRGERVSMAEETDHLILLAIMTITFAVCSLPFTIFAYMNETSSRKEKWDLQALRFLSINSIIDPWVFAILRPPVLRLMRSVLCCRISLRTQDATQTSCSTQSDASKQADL

The half-life is how long it takes for the measured level to halve. In the case of `CCCCC[C@H](O)/C=C/[C@@H]1[C@H]2C/C(=C/CCCC(=O)O)O[C@H]2C[C@H]1O` [epoprostenol], in data set [1] (in vivo), the half-life was 2 to 7 min.
Take `CCCCC[C@H](O)CC[C@@H]1[C@H]2Cc3cccc(OCC(=O)O)c3C[C@H]2C[C@H]1O` [treprostinil]: in data set [2], the “rate of treprostinil release during dialysis” value was “dialyzed out the fastest”. Besides, in data set [3], the “sustained cAMP level” value is recorded as “not exhibited”. Further, in data set [1] (continuous subcutaneous infusion, 1.25 to 22 ng/kg/min), the “time to steady state plasma concentrations” value was “about 10 hours”. In addition, in data set [1] (in vivo), the “excreted in urine as identifiable metabolite” value is recorded as 64% and the “excreted in urine as unchanged drug” value is on record as 4%. In addition, the decrease of clearance entry in data set [1] (patients with hepatic insufficiency) is “up to 80%”. In data set [1] (subcutaneous administration), the absolute bioavailability is on record as 100% and the elimination half-life is 4.6 h. Moreover, the “administered drug excreted in urine” value in data set [1] (unchanged drug or identifiable metabolite) is recorded as “Approximately 79%”.
